Laboratory results as given in ChEMBL document CHEMBL1275330, “Rational design, synthesis, and evaluation of new selective inhibitors of microbial class II (zinc dependent) fructose bis-phosphate aldolases” (J Med Chem, 2010).
Several values for one entry are separate records, joined by “and”; a condition that tells them apart may be missing. Equal entries are not always repeated.

How the values were obtained:
[1] = target: T1, Fructose-bisphosphate aldolase class II (Yersinia pestis, UniProt A0A380PJR2)
T1 sequence (A0A380PJR2 whole entry): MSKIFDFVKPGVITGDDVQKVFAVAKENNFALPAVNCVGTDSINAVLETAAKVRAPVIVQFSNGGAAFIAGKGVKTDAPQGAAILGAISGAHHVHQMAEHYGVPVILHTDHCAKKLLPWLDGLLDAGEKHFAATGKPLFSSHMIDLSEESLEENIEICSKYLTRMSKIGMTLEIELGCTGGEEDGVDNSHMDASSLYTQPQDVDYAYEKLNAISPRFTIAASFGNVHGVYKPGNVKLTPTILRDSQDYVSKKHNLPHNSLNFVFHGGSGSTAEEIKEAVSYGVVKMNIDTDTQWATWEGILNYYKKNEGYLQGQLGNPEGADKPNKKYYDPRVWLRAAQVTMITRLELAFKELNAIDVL

[2] = target: T2, Fructose-bisphosphate aldolase (Mycobacterium tuberculosis, UniProt P9WQA3)
T2 sequence (P9WQA3 whole entry): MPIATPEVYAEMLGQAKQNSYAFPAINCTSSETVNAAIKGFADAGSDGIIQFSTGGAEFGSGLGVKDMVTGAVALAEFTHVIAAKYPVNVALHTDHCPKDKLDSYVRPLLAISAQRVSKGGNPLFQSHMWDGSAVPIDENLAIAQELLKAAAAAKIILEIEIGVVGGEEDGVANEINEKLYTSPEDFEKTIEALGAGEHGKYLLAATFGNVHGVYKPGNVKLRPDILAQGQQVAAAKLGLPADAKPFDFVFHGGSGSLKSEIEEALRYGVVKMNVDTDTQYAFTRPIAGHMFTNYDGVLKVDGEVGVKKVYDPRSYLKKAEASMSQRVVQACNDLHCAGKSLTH

[3] = target: T3, Fructose-bisphosphate aldolase (Candida albicans (strain SC5314 / ATCC MYA-2876) (Yeast), UniProt Q9URB4); test: Inhibition of Candida albicans zinc dependent class 2 Fba
T3 sequence (Q9URB4 whole entry): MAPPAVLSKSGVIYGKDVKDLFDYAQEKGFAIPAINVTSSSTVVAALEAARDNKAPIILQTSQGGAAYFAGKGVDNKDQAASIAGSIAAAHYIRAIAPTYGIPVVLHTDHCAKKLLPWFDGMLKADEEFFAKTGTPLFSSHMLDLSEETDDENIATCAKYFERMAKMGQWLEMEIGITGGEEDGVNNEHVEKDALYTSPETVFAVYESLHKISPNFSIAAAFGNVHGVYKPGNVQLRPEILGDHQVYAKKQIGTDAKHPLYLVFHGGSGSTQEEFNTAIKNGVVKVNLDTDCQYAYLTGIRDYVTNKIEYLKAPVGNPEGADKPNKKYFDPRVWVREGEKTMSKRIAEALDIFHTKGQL

[4] = target: T4, Fructose-bisphosphate aldolase (Helicobacter pylori (strain ATCC 700392 / 26695) (Campylobacterpylori), UniProt P56109)
T4 sequence (P56109 whole entry): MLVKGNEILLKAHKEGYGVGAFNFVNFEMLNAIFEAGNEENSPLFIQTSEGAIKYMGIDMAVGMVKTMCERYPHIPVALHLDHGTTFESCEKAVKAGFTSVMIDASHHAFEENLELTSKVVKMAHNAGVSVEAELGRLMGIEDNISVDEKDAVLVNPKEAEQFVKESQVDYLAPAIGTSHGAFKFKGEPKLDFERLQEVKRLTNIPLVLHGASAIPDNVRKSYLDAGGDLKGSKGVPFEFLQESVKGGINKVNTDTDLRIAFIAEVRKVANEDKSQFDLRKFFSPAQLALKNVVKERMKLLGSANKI

[5] = target: T5, Fructose-bisphosphate aldolase A (Oryctolagus cuniculus, UniProt P00883)
T5 sequence (P00883 whole entry): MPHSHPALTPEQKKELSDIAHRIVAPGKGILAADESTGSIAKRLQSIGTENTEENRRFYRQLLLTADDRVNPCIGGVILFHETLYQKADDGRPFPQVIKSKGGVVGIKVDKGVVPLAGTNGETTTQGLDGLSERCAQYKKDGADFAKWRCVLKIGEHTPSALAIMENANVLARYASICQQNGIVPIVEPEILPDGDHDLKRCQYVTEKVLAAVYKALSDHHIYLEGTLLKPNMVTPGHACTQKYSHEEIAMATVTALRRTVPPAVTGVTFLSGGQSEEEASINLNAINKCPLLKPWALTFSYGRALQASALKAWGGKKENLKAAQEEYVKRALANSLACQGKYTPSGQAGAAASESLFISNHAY

Which results are given for `O=C(COP(=O)(O)O)[C@@H](O)[C@H](O)[C@H](O)COP(=O)(O)O`?
Ki [1]: 55 µM; Ki [2]: 21 µM

How did the Ki [3] turn out when `O=C(COP(=O)(O)O)N(O)CCCCO` was run?
Its Ki is 300 nM and 297 nM.

What does the source list for `O=C(COP(=O)(O)O)N(O)CCCCOP(=O)(O)O`?
IC50 [4]: 131 nM; IC50 [1]: 36 nM; IC50 [3]: 4.8 nM; Ki [3]: 3 nM and 3.25 nM; IC50 [5]: 112 µM; IC50 [2]: 3.2 nM

With `O=C(COP(=O)(O)O)N(O)CCCO` as the compound, how does the Ki [5] read?
The Ki was 2.5 mM.

With `CCCCCC(=O)OCCCCN(O)C(=O)COP(=O)(O)O` as the compound, how does the Ki [3] read?
The Ki was 280 nM and 276 nM.

With `CCCCCCCCCCCC(=O)OCCCCN(O)C(=O)COP(=O)(O)O` as the compound, how does the Ki [3] read?
Its Ki is 800 nM and 815 nM.

What about the Ki [5] of the same compound?
The Ki was 0.067 mM.
